Data taken from article PMC8611018, “Apelin-13 in septic shock: effective in supporting hemodynamics in sheep but compromised by enzymatic breakdown in patients” (Scientific Reports, 2021).

Legend:
[1] = tested on: healthy sheep; assay: Hemodynamic and diuretic dose-response to infusion in healthy sheep; type: in vivo
Method: This study was approved by our institutional ethics review board (CFPA: Comité Facultaire de Protection des Animaux, #023-18BR). Thirty-six male Canadian Arcott sheep (33 ± 3 kg, 3 to 4 months old;) were included in this study according to the Animal Research: Reporting of In Vivo Experiments (ARRIVE) guidelines and received care in compliance with the Canadian Council of Animal Care and National Institutes of Health (NIH) guidelines. Animals were housed for at least 48 h before the experiment in dedicated accommodations and bedding.
(§1) The day before surgery, autologous stool was retrieved for treatment of the sheep selected for fecal peritonitis induction and mixed overnight in 0.9% normal saline (NS) and 5% D-glucose at 37 °C. The animals were fasted overnight. On the morning of the day of surgery, sheep received premedication to ease animal handling and intubation (i.e., intramuscular injections of 0.1 mg/kg atropine and 10 mg/kg ketamine) before routing to the operating room for insertion of an external jugular vein catheter and administration of a 500 mL bolus of Ringer’s lactate (RL). […]
(§2) Baseline hemodynamic parameters and vital sign measurements (HR: heart rate, MAP: mean arterial pressure, SVR: systemic vascular resistance, CVP: central venous pressure, PAOP: pulmonary artery occlusion pressure and wedge pressure), dP/dt max and min, LV end-systolic pressure (LVESP), CO, stroke volume (SV), GEDV, and extravascular lung water (EVLW) were then recorded. Blood temperature, baseline central venous O2 saturation (ScvO2), and arterial blood gas (RapidLab® 348, Siemens Healthcare Diagnostics, Montreal, Qc, Canada) and lactate levels (Lactate Plus, Nova Biomedical, Waltham, MA, USA) were also monitored. A slightly modified sheep SOFA[46] score was calculated after reached shock criteria defining the “shock” time point and before euthanasia named the “final” time points, defined as a MAP below 65 mmHg for level 1 of the cardiovascular system assessment and assuming a constant level 3 of the central nervous system (Glasgow score 6–9) at “shock”. […]

[2] = Apelinergic stability in human plasma; type: in vitro ADME; settings: 27 μL plasma + 6 μL 1 mM aqueous peptide, 37 °C, 0, 0.5, 1, 2, 4, 6 h, UPLC-MS, mean ± SEM
Method: (§3) Additional extraction on […] column (Phenomenex, Torrance, CA, USA) with overnight freeze-drying was mandatory for samples used for ELA measurements. […] LS-F25717; […] ELA was quantified using a commercially available ELISA kit (Peninsula Laboratories International; S-1508; CA, USA) with a measurement range of 0-100 ng/mL. […] Proteolytic degradation was stopped by adding 140 μL of 50% acetonitrile, 50% ethanol, and 0.25 mM N, N-dimethylbenzamide at 0, 0.5, 1, 2, 4, or 6 h. […] Next, the reaction mixture was diluted with 80 μL of water and analyzed overnight with an Acquity class H ultra-performance liquid chromatography-mass spectrometry (UPLC-MS) system from Waters (Milford, MA, USA) (column: Acquity UPLC CSH C18, 2.1 mm × 50 mm, packed with 1.7 μm particles). Results were expressed as a percentage of the initial zero-time spike area.

[3] = tested on: sheep APJ; assay: BRET assay for β-arrestin-2 recruitment in HEK293 cells expressing sheep APJ; type: cell-based, sheep (Ovis aries); settings: BRET2, HEK293 cells with sheep APJ, 30 min stimulation at 37 °C, n = 3
Method: (§4) BRET experiments were performed as previously described. In brief, HEK293 cells were transfected with plasmids encoding sheep APJ, Gαi1-RlucII ([…]β1 (from cDNA.org) (for the BRET-based Gαi1 activation assay) or encoding sheep APJ-GFP10 and RlucII-β-arrestin2 (for the BRET-based β-arrestin-2 recruitment assay)[50]. To perform the BRET assays, 50,000 cells/well were transferred into white 96-well plates (BD Bioscience, Mississauga, Canada) and incubated at 37 °C overnight. […] After stimulation, 5 μM coelenterazine 400A was added to each well, and the plate was read on a GeniosPro plate reader using the BRET2 filter set (Tecan, Austria). The BRET2 ratio was calculated as […].

[4] = Apelinergic stability in sheep plasma; type: in vitro ADME; settings: sheep plasma of baseline and shock time points (n = 18); 27 μL plasma + 6 μL 1 mM aqueous peptide, 37 °C, 0 to 6 h, UPLC-MS
Method: as §3

[5] = tested on: sheep APJ; assay: BRET assay for Gαi1 activation in HEK293 cells expressing sheep APJ; type: cell-based, sheep (Ovis aries); settings: BRET2, HEK293 cells with sheep APJ, 5 min stimulation at 37 °C, n = 3
Method: as §4

[6] = tested on: sheep APJ; assay: Competitive radioligand binding with [125I]-(pyr1)Apelin-13 on HEK293 cells expressing sheep APJ; design: species or system sheep (Ovis aries); settings: HEK293 cells with HA-tagged sheep APJ, 0.2 nM [125I]-(pyr1)APLN-13, 1 h at room temperature, n = 3; human APLN-13 compared with human ELA
Source text: The sequence of the apelin receptor was synthetized with gBlocks Gene Fragments (Integrated DNA Technologies, USA) and subcloned into […]1 (a modified vector in which we replaced the YFP sequence with that for two HA tags) with an NEBuilder HiFi DNA Assembly Cloning Kit (New England Biolabs, MA, USA). The Ovis aries APJ sequence was obtained from the RefSeq database (XM_027979777.1). […] Thermo Scientific Pierce, Canada)[49]. […] The γ emission was quantified using a γ-counter 1470 Wizard from PerkinElmer (Waltham) (80% efficiency). […] All binding data were calculated and plotted using GraphPad Prism 8 (La Jolla, CA) and represent the mean ± SEM of three replicates.

[7] = tested on: sheep with fecal peritonitis-induced septic shock; assay: Hemodynamic and renal dose-response to infusion in sheep with fecal peritonitis-induced septic shock; type: in vivo
Method: as §1, with “(RL). Sheep were then continuously infused with RL (3 mL/kg/h) and 5% D-glucose (2 mL/kg/h). Tracheal intubation (7–8 Fr) was performed in a caddy under isoflurane (1–2%) mask inhalation and by an anterior approach. Sheep were then placed in the supine position on heating pads before ventilator connection (Aestiva 15, Datex-Ohmeda, USA).” for “(RL).”
as §2
After 2 g/kg autologous stool slurry was injected into both intra-peritoneal (i.p.) tubes, RL and 5% D-glucose infusions were stopped, and all the above parameters were monitored every 30 min. […]

Q: With `CSCC[C@H](NC(=O)[C@@H](NC(=O)[C@H](CC(C)C)NC(=O)[C@H](CC(N)=O)NC(=O)[C@@H](NC(=O)[C@@H]1CCCN1C(=O)[C@H](CCCNC(=N)N)NC(=O)[C@@H](N)CCC(N)=O)C(C)C)[C@@H](C)O)C(=O)N[C@@H](CCCNC(=N)N)C(=O)N[C@@H](CCCNC(=N)N)C(=O)N[C@@H](CCCCN)C(=O)N[C@@H](CC(C)C)C(=O)N[C@@H](CCCNC(=N)N)C(=O)N[C@@H](CCCCN)C(=O)N[C@@H](Cc1c[nH]cn1)C(=O)N[C@@H](CC(N)=O)C(=O)N[C@H]1CSSC[C@@H](C(=O)N[C@@H](CCSC)C(=O)N2CCC[C@H]2C(=O)N[C@@H](CC(C)C)C(=O)N[C@@H](Cc2c[nH]cn2)C(=O)N[C@@H](CO)C(=O)N[C@@H](CCCNC(=N)N)C(=O)N[C@H](C(=O)N2CCC[C@H]2C(=O)N[C@@H](Cc2ccccc2)C(=O)N2CCC[C@H]2C(=O)O)C(C)C)NC(=O)[C@H](CCCNC(=N)N)NC(=O)[C@H](CCCNC(=N)N)NC(=O)[C@H](CCC(N)=O)NC(=O)[C@H](CC(C)C)NC1=O` [ELA, Elabela] as the molecule, how does the “mean arterial pressure (MAP)” value ([1]; 6.25 nMol/kg/h, mean ± SEM, n = 6/group) read?
A: 65.4 ± 8.1 mmHg

Q: And the systemic vascular resistance ([1]; incremental doses 0.025 to 12.5 nmol/kg/h)?
A: not significantly impacted

Q: What about the “heart rate (HR) and global end-diastolic volume (GEDV)” value ([1]; incremental doses 0.025 to 12.5 nmol/kg/h, PiCCO) of the same molecule?
A: unchanged

Q: And the half-life ([2]; plasma of patients with sepsis/septic shock (n = 22))?
A: 1.15 ± 0.2 h

Q: What about the half-life ([2]; plasma, plasma of healthy volunteers (n = 10)) of the same molecule?
A: 4.3 ± 0.75 h

Q: What about the “potency and efficacy in β-arrestin-2 recruitment, compared with APLN-13” value [3] of the same molecule?
A: lower potency and efficacy

Q: And the “plasma stability (residual percentage of non-degraded peptide)” value [4]?
A: unaffected

Q: And the “potency in Gαi1 activation, compared with APLN-13” value [5]?
A: lower potency

Q: And the “affinity for sheep APJ” value [6]?
A: similar

Q: What about the “cardiac output (CO)” value ([7]; septic sheep after fluid resuscitation, 2.5 nMol/kg/h, mean ± SEM, n = 6/group) of the same molecule?
A: 2.71 ± 0.41 L/min

Q: What about the “endpoint circulating levels of lactate, cortisol and Tn T” value ([7]; septic sheep, at the end of the last d5 infusion, n = 6/group) of the same molecule?
A: neither APLN-13 nor ELA infusion impacted

Q: And the “FP-induced decreases of monitored hemodynamic parameters” value ([7]; septic sheep, incremental doses 0.025 to 12.5 nmol/kg/h)?
A: failed to alleviate these decreases
